Reference: US20110152345A1, “EBI3, DLX5, NPTX1 AND CDKN3 FOR TARGET GENES OF LUNG CANCER THERAPY AND DIAGNOSIS” (Oncotherapy Science, Inc., priority 2007, published 2011)

Key:
[1] = test system: LC319 cells; test: MTT assay of LC319 cells treated with cell-permeable 11R-EF-1delta peptides; format: cell-based, human; conditions: peptide 2.5, 5.0 and 7.5 micro M for 5 days
From the text: 19-amino acid peptide sequence corresponding to a part of EF-1delta protein that contained possible binding sites of CDKN3 were covalently linked at its NH2-terminus to a membrane transducing 11 poly-arginine sequence (11R; refs. Futaki et al., Hayama et al., 2006, 2007). Five cell permeable peptides were synthesized: 11R-EF-1delta73-91, RRRRRRRRRRR-GGG-TSGDHGELVVRIASLEVEN; 11R-EF-1delta90-108, RRRRRRRRRRR-GGG-ENQSLRGVVQELQQAISKL; 11R-EF-1delta108-126, RRRRRRRRRRR-GGG-LEARLNVLEKSSPGHRATA; 11R-EF-1delta125-143, RRRRRRRRRRR-GGG-TAPQTQHVSPMRQVEPPAK; 11R-EF-1delta142-160, RRRRRRRRRRR-GGG-AKKPATPAEDDEDDDIDLF. Peptides were purified by preparative reverse-phase high-pressure liquid chromatography. LC319 cells were incubated with the 11R peptides at the concentration of 2.5, 5.0 and 7.5 micro M for 5 days. The medium was changed at every 48 hours at the appropriate concentrations of each peptide and the viability of cells was evaluated by MTT assay at 5 days after the treatment. 12. Immunoprecipitation and MALDI-TOF-MS mapping of CDKN3-Associated Proteins.

[2] = biological target: T1, CDKN3 and EF-1delta (Homo sapiens, UniProt Q16667); test: Immunoprecipitation of endogenous CDKN3 and EF-1delta complex in peptide-treated LC319 cells; format: cell-based; conditions: peptide added to culture medium
T1 construct: between endogenous CDKN3 and EF-1delta proteins in LC319 cells; endogenous in cells; host or cells: LC319 (human lung adenocarcinoma cell line)
T1 sequence (Q16667 1-212): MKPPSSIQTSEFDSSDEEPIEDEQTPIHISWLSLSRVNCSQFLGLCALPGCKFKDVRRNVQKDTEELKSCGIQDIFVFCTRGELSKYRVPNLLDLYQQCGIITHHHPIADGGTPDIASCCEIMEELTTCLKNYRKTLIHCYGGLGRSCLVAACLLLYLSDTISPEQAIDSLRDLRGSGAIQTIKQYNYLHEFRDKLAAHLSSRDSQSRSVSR
From the text: FIG. 24: Identifies the CDKN3-binding region in EF-1delta. Part A presents a schematic drawing of five cell permeable peptides linked covalently at its NH2-terminus to a membrane transducing 11 poly-arginine sequence. The sequence of leucine zipper motif in EF-1delta and five cell permeable peptides derived from EF-1delta are shown. Part B presents the viability of LC319 cells evaluated by MTT assay in response to five cell permeable peptides (upper panel). Reduction of the complex formation detected by immunoprecipitation between endogenous CDKN3 and EF-1delta proteins in LC319 cells that were treated with the 11R-EF-1delta90-108 peptides (lower panel).
Then, to investigate the functional significance of interaction between CDKN3 and EF-1delta for growth or survival of lung-cancer cells, bioactive cell-permeable peptides expected to inhibit the binding of these two proteins were developed. Next 5 different peptides of 19 amino acid sequence that included in codons 73-160 of EF-1delta were synthesized (FIG. 24A). These peptides were covalently linked at NH2-terminalus to a membrane transducing 11 arginine-residues (11R).

RRRRRRRRRRR-GGG-ENQSLRGVVQELQQAISKL (RRRRRRRRRRRGGGENQSLRGVVQELQQAISKL) [11R-EF-1delta90-108]
cell viability (MTT assay) [1]: significant decreases | complex formation between endogenous CDKN3 and EF-1delta [2]: reduced complex formation
